Tested on: NIH3T3 cells expressing ROS1 fusions with G2032R
Test: Anchorage-independent colony formation assay
Type: cell-based
Settings: at 100 nM
Description: Each inhibitor was paired with its own DMSO condition to serve as an accurate control. NIH3T3 cells expressing CD74-ROS1 or EZR-ROS1 wild-type or mutant fusions were plated in 0.4% agarose in complete medium at a density of 2,000 cells per 0.5 mL of agarose with DMSO or inhibitor at identical concentration to the bottom layer. Plates were incubated for 4 weeks, and each well was fed 3× per week with 75 μL of complete medium with or without inhibitor to match each plated condition to prevent drying of the agarose. Plates were read after 3 and 4 weeks using a GelCount™ (Oxford Optronix). Colony counts were averaged by condition and normalized to the colony counts from paired DMSO conditions. Data analysis and visualization was performed using Microsoft Excel and GraphPad Prism.

CN1CCN(c2ccc(C(=O)Nc3n[nH]c4ccc(Cc5cc(F)cc(F)c5)cc34)c(NC3CCOCC3)c2)CC1 [Entrectinib, reference compound]
inhibition of colony formation: weaker effects
